The record followed here is PubChem BioAssay AID1918998 (Molecular Pharmacology Branch, DTP, NCI, 2023).

Values joined by “and” are separate entries in the source; they are usually repeats but may differ in a detail not shown here. Equal values may be shown once.

The assay concerns 521955-158-R2-J5-PDC complex spheroid growth. Description: Anticancer human tumor 521955-158-R2-J5-PDC patient-derived pancreatic carcinoma cell line growth inhibition [AhR]. As to conditions: for viability, T/C: stronger effect = lower value. In outline:
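Agents were dosed in half-log steps down from roughly clinical Cmax, or from 10 microM where Cmax was unknown, alone and with AhR antagonists. Read-out: percent test/control growth of tumor spheroids containing HUVEC and MSC stromal cells.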

Where [1] appears, read: curve of first compound, second compound 0.1 µM.
Where [2] appears, read: curve of first compound, second compound 0.316 µM.
Setting [3] is: curve of first compound, second compound 1 µM.
Setting [4] is: curve of first compound, second compound 3.16 µM.
[5] abbreviates: curve of first compound, second compound 10 µM.
Setting [6] is: second compound 0.1 µM, first compound 0.0316 µM.
Setting [7] is: second compound 0.1 µM, first compound 0.1 µM.
Where [8] appears, read: second compound 0.1 µM, first compound 0.316 µM.
Setting [9] is: second compound 0.1 µM, first compound 1 µM.
The mark [10] stands for this setting: second compound 0.1 µM, first compound 3.16 µM.
[11] abbreviates: second compound 0.1 µM, first compound 10 µM.
[12] abbreviates: second compound 0.316 µM, first compound 0.0316 µM.
Setting [13] is: second compound 0.316 µM, first compound 0.1 µM.
Where [14] appears, read: second compound 0.316 µM, first compound 0.316 µM.
The mark [15] stands for this setting: second compound 0.316 µM, first compound 1 µM.
Setting [16] is: second compound 0.316 µM, first compound 3.16 µM.
The mark [17] stands for this setting: second compound 0.316 µM, first compound 10 µM.
The mark [18] stands for this setting: second compound 1 µM, first compound 0.0316 µM.
The mark [19] stands for this setting: second compound 1 µM, first compound 0.1 µM.
Where [20] appears, read: second compound 1 µM, first compound 0.316 µM.
The mark [21] stands for this setting: second compound 1 µM, first compound 1 µM.
[22] abbreviates: second compound 1 µM, first compound 3.16 µM.
[23] abbreviates: second compound 1 µM, first compound 10 µM.
[24] abbreviates: second compound 3.16 µM, first compound 0.0316 µM.
Setting [25] is: second compound 3.16 µM, first compound 0.1 µM.
The mark [26] stands for this setting: second compound 3.16 µM, first compound 0.316 µM.
Where [27] appears, read: second compound 3.16 µM, first compound 1 µM.
Where [28] appears, read: second compound 3.16 µM, first compound 3.16 µM.
Setting [29] is: second compound 3.16 µM, first compound 10 µM.
Where [30] appears, read: second compound 10 µM, first compound 0.0316 µM.
Where [31] appears, read: second compound 10 µM, first compound 0.1 µM.
[32] abbreviates: second compound 10 µM, first compound 0.316 µM.
The mark [33] stands for this setting: second compound 10 µM, first compound 1 µM.
[34] abbreviates: second compound 10 µM, first compound 3.16 µM.
Setting [35] is: second compound 10 µM, first compound 10 µM.
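Wherever viability, T/C is given: spheroids mix tumor cells with HUVEC endothelium and human MSC stroma; luminescence taken as viability surrogate after a week of drug exposure.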

One may read the IC50 as the concentration that inhibits the measured activity by half. As a reminder, the viability, T/C is the result in the treated group divided by that in the control group, in per cent. With `CC(C)c1c(-c2ccccc2)nc2c(C#N)c[nH]n2c1=O` + Cc1ccccc1N=Nc1ccc(NC(=O)c2ccnn2C)c(C)c1, the IC50 runs as follows: under setting [1], over 10000 nM; under setting [2], over 10000 nM; under setting [3], over 10000 nM; under setting [4], over 10000 nM; under setting [5], over 10000 nM. Besides, the viability, T/C under setting [6] is 98.1%; the viability, T/C under setting [7] is 125%; the viability, T/C under setting [8] was 80.3%; the viability, T/C under setting [9] was 94.7%; the viability, T/C under setting [10] is 81.2%; the viability, T/C under setting [11] was 97.8%. Further, the viability, T/C is 115% under setting [12]; 95.1% under setting [13]; 110% under setting [14]; 81.5% under setting [15]; 82% under setting [16]; 81.6% under setting [17]. Also, the viability, T/C is, setting by setting: under setting [18], 88.7%; under setting [19], 101%; under setting [20], 102%; under setting [21], 87.8%; under setting [22], 92.6%; under setting [23], 97.8%. For the same compound, the viability, T/C was 128% under setting [24]; 125% under setting [25]; 127% under setting [26]; 114% under setting [27]; 114% under setting [28]; 114% under setting [29]. Moreover, the viability, T/C runs as follows: under setting [30], 141%; under setting [31], 130%; under setting [32], 132%; under setting [33], 123%; under setting [34], 114%; under setting [35], 103%.

Consider `Cc1ccccc1N=Nc1ccc(NC(=O)c2ccnn2C)c(C)c1`, for which the IC50 (compound alone, run of 06/14/2022) is over 10000 nM.

Consider `CC(C)c1c(-c2ccccc2)nc2c(C#N)c[nH]n2c1=O`, for which the viability, T/C is, setting by setting: (compound 0.0316 µM) 86.8% and 83.8% and 96.4%; (compound 0.1 µM) 103% and 100% and 89.5%; (compound 0.316 µM) 96.2% and 76.9% and 87.5%; (compound 1 µM) 85.3% and 75.7% and 64.5%; (compound 3.16 µM) 88.3% and 95.4% and 70.7%; (compound 10 µM) 83.1% and 71.7% and 86.4%. Besides, for the setting “curve of compound”, the half-maximal inhibitory concentration (IC50) was over 10000 nM.

In the case of `Nc1ccn(C2OC(CO)C(O)C2(F)F)c(=O)n1` (stereo not drawn) + Cc1ccccc1N=Nc1ccc(NC(=O)c2ccnn2C)c(C)c1, the IC50 under setting [1] turned out to be 267 nM; the IC50 under setting [2] was found to be 501 nM; the IC50 under setting [3] stood at 448 nM; the IC50 under setting [4] turned out to be 405 nM; the IC50 under setting [5] was 338 nM. Also, the viability, T/C was 76.7% under setting [6]; 52.4% under setting [7]; 57% under setting [8]; 28.4% under setting [9]; 13.3% under setting [10]; 14.5% under setting [11]. Besides, the viability, T/C was 66.8% under setting [12]; 52.7% under setting [13]; 85.8% under setting [14]; 22.3% under setting [15]; 13.5% under setting [16]; 12.5% under setting [17]. The viability, T/C reads like this: under setting [18], 66.5%; under setting [19], 52.5%; under setting [20], 71.2%; under setting [21], 19.2%; under setting [22], 13.5%; under setting [23], 12.4%. In addition, the viability, T/C was 91.2% under setting [24]; 69.1% under setting [25]; 62.3% under setting [26]; 21.8% under setting [27]; 13.2% under setting [28]; 14.4% under setting [29]. The viability, T/C was 107% under setting [30]; 93.8% under setting [31]; 52.1% under setting [32]; 21.6% under setting [33]; 17.8% under setting [34]; 15.6% under setting [35].
